Reference: paper PMC6563033, “Purification and Characterization of Antioxidant Peptides Derived from Protein Hydrolysate of the Marine Bivalve Mollusk Tergillarca granosa” (Marine Drugs, 2019)
Where two headings read alike, the source gives them in different places. Residues, ends and D or L forms follow the SMILES beside them. No end group written: not given here.

Assays:
[1] = cited from earlier work
Method: Defatted muscle of blood cockle was hydrolyzed under a two-enzyme system (Alcalase treatment for 1.5 h following Neutrase treatment for 1.5 h), and the degree of hydrolysis (DH) and yield of the resulted hydrolysate (referred to as TGH) were 19.32 ± 1.37% and 9.62 ± 0.86% (on the basis of defatted muscle), respectively. […] In addition, the EC50 values of TGP3 and TGP4 were lower than those o ...

[2] = cited from earlier work; remark: listed apart in the source
[3] = cited from earlier work; remark: listed apart in the source
Source text: EC50 values of TGP3 and TGP4 were lower than those of APs from protein ...

[4] = cited from earlier work; for EC50 (half elimination ratio) on ABTS cation radical: APs from blue-spotted stingray
Source text: Bioactive peptides (BPs), which in general range from 2 to 20 amino acids in size, are fragments of proteins and become active when released during enzymatic hydrolysis, gastrointestinal transit, and fermentation. […] Furthermore, EC50 values of TGP3 and TGP4 were lower than those of APs from protein hydrolysates of skip ...

[5] = cited from earlier work; for Change of activity during heat treatment: heat 25–100 °C; for Change of activity during pH treatment: pH 3–11
Source text: Heat treatment is a common method of food processing and APs are helpful to lengthen the food shelf-life if they can keep their activity after heating. Peptides with large-scale pH stability can be incorporated into diverse liquid products and keep their bioactivity. Therefore, thermal and pH stability of peptides are important indexes for their application in functional products, and characterization of those properties can help to design their potential processing parameters. ATSHH from protein hydrolysate of sandfish (Arctoscopus japonicus) partially lost its DPPH radical scaven ...

[6] = Simulated GI digestion (pepsin + pancreatin), read out as hydroxyl radical scavenging EC50; type: in vitro ADME; conditions: two-stage digestion: pepsin 1.0 h + pancreatin 2.0 h; judged from hydroxyl radical EC50
Method: First, 1.0 mL of a 1.87 mM 1,10-phenanthroline solution and 2.0 mL of the sample were added to a screw-capped tube and mixed. Then, 1.0 mL of a FeSO4·7H2O solution (1.87 mM) was added to the mixture. The reaction was initiated by adding 1.0 mL of H2O2 (0.03%, v/v). After being incubated at 37 °C for 60 min in a water bath, the absorbance of the reaction mixture was measured at 536 nm against a reagent blank. The reaction mixture without any antioxidant was used as the negative control, and a mixture without H2O2 was used as the blank. The hydroxyl radical scavenging activity was calculated using the following formula: Hydroxyl radical scavenging activity (%) = [(As − An)/(Ab − An)] × 100% (3) where As, An, and Ab are the absorbance values determined at 536 nm of the sample, the negative control, and the blank after the reaction, respectively.
Stability of TGP3 and TGP4 were measured according to the previous method with minor modifications. A temperature-controlled water bath at 25, 37, 60, 80, or 100 °C for 0.5 h was used to measure thermostability of TGP3 and TGP4. Effects of pH treatments (pH 3, 5, 7, 9, or 11) of sample solutions incubated at 25 °C for 2.5 h were assessed to analyze the pH stability of TGP3 and TGP4. […] Hydroxyl radical scavenging activities (EC50 value) of the treated TGP3 and TGP4 were measured according to the previous methods.

[7] = APs from miiuy croaker swim bladder
[8] = APs from croceine croaker scale
[9] = APs from spotless smoothhound (Mustelus griseus) muscle

Compound: NWDMEKIWD [literature AP from skate muscle]
- EC50 on DPPH radical ([1]; AP from skate muscle): 289 µg/mL

Compound: LMGQW [literature AP from monkfish muscle]
- EC50 on superoxide anion radical ([2]; APs from monkfish muscle): 42 µg/mL
- EC50 on hydroxyl radical ([3]; APs from monkfish muscle): 40 µg/mL

Compound: GIEWA [literature AP from miiuy croaker swim bladder]
- EC50 on superoxide anion radical [2, 7]: 300 µg/mL
- EC50 on DPPH radical ([1]; AP from miiuy croaker swim bladder): 780 µg/mL
- EC50 on hydroxyl radical [3, 7]: 710 µg/mL

Compound: FMPLH [literature AP from miiuy croaker muscle]
- EC50 on superoxide anion radical ([2]; APs from miiuy croaker muscle): 150 µg/mL
- EC50 on DPPH radical ([1]; APs from miiuy croaker muscle): 480 µg/mL
- EC50 on hydroxyl radical ([3]; APs from miiuy croaker muscle): 800 µg/mL

Compound: GFRGTIGLVG [literature AP from croceine croaker scale]
- EC50 on hydroxyl radical [3, 8]: 293 µg/mL

Compound: FTGMD [literature AP from miiuy croaker swim bladder]
- EC50 on superoxide anion radical [2, 7]: 3040 µg/mL

Compound: AGPM [literature AP from skipjack tuna bone]
- EC50 on superoxide anion radical ([2]; APs from skipjack tuna bone): 1680 µg/mL
- EC50 on ABTS cation radical ([4]; APs from skipjack tuna bone): 1480 µg/mL

Compound: ATSHH [literature peptide from protein hydrolysate of sandfish (Arctoscopus japonicus)]
- Retention of activity after pH treatment ([5]; basic (pH 10–12) and acidic (pH 2) conditions): moderate losses of activity
- Retention of DPPH radical scavenging activity after heating ([5]; incubated at 50–90 °C): partially lost its DPPH radical scavenging activity

Compound: YPPAK [literature AP from blue mussel]
- EC50 on DPPH radical ([1]; AP from blue mussel): 2620 µg/mL

Compound: IVAGPQ [literature AP from skate cartilage]
- EC50 on ABTS cation radical ([4]; APs from skate cartilage): 1290 µg/mL

Compound: FSGLR [literature AP from miiuy croaker swim bladder]
- EC50 on superoxide anion radical [2, 7]: 3350 µg/mL

Compound: FLNEFLHV [literature AP from salmon]
- EC50 on ABTS cation radical ([4]; AP from salmon): 1548 µg/mL

Compound: FLHRP [literature AP from monkfish muscle]
- EC50 on superoxide anion radical ([2]; APs from monkfish muscle): 101 µg/mL
- EC50 on hydroxyl radical ([3]; APs from monkfish muscle): 114 µg/mL

Compound: WAFAPA [literature peptide from blue-spotted stingray]
- Change of activity during heat treatment [5]: no significant (p > 0.05) differences
- Change of activity during pH treatment [5]: no significant (p > 0.05) differences
- EC50 (half elimination ratio) on ABTS cation radical [4]: 8330 µg/mL

Compound: FPYLRH [literature AP from miiuy croaker swim bladder]
- EC50 on superoxide anion radical [2, 7]: 340 µg/mL
- EC50 on hydroxyl radical [3, 7]: 680 µg/mL

Compound: GPAGPAG [literature AP from croceine croaker scale]
- EC50 on superoxide anion radical [2, 8]: 99 µg/mL
- EC50 on hydroxyl radical [3, 8]: 240 µg/mL

Compound: NFWWP [literature AP from miiuy croaker muscle]
- EC50 on superoxide anion radical ([2]; APs from miiuy croaker muscle): 840 µg/mL

Compound: KFPE [literature AP from spotless smoothhound muscle]
- EC50 on hydroxyl radical [3, 9]: 151 µg/mL

Compound: EWPAQ [literature AP from monkfish muscle]
- EC50 on hydroxyl radical ([3]; APs from monkfish muscle): 269 µg/mL

Compound: FIMGPY [literature AP from skate cartilage]
- EC50 on ABTS cation radical ([4]; APs from skate cartilage): 1040 µg/mL

Compound: GFVG [literature AP from spotless smoothhound muscle]
- EC50 on ABTS cation radical ([4]; APs from spotless smoothhound muscle, no reference given): 1305.5 µg/mL

Compound: FIGP [literature AP from bluefin leatherjacket skin]
- EC50 on DPPH radical ([1]; AP from bluefin leatherjacket skin): 118 µg/mL

Compound: GADIVA [literature AP from skipjack tuna bone]
- EC50 on DPPH radical ([1]; APs from skipjack tuna bone): 570 µg/mL
- EC50 on hydroxyl radical ([3]; APs from skipjack tuna bone): 250 µg/mL

Compound: ELLI [literature AP from spotless smoothhound muscle]
- EC50 on hydroxyl radical [3, 9]: 117.3 µg/mL

Compound: GFEPY [literature AP from miiuy croaker swim bladder]
- EC50 on superoxide anion radical [2, 7]: 870 µg/mL

Compound: VGGRP [literature AP from grass carp skin]
- EC50 on hydroxyl radical ([3]; APs from grass carp skin): 2055 µg/mL

Compound: PSYV [literature AP from weatherfish loach]
- EC50 on hydroxyl radical ([3]; AP from weatherfish loach): 2640 µg/mL

Compound: GFPSG [literature AP from croceine croaker scale]
- EC50 on superoxide anion radical [2, 8]: 151 µg/mL
- EC50 on hydroxyl radical [3, 8]: 107 µg/mL

Compound: MDLFTE [TGP-3, Met-Asp-Leu-Phe-Thr-Glu]
- Susceptibility to GI digestive enzymes [6]: partially susceptible to be degradated by GI digestive enzymes

Compound: MYPGLA [literature peptide from blue-spotted stingray]
- Change of activity during heat treatment [5]: no significant (p > 0.05) differences
- Change of activity during pH treatment [5]: no significant (p > 0.05) differences
- EC50 (half elimination ratio) on ABTS cation radical [4]: 12880 µg/mL

Compound: NADFGLNGLEGLA [literature AP from giant squid]
- EC50 on hydroxyl radical ([3]; AP from giant squid): 612 µg/mL

Compound: GPDGR [literature AP from skipjack tuna bone]
- EC50 on superoxide anion radical ([2]; APs from skipjack tuna bone): 1440 µg/mL
- EC50 on ABTS cation radical ([4]; APs from skipjack tuna bone): 1070 µg/mL

Compound: PYSFK [literature AP from grass carp skin]
- EC50 on hydroxyl radical ([3]; APs from grass carp skin): 2283 µg/mL

Compound: N[C@@H](Cc1c[nH]c2ccccc12)C(=O)N1CCC[C@H]1C(=O)N1CCC[C@H]1C(=O)N[C@@H](CC(=O)O)C(=O)O [TGP-4, Trp-Pro-Pro-Asp] (H-WPPD-OH)
- Susceptibility to GI digestive enzymes [6]: partially susceptible to be degradated by GI digestive enzymes

Compound: GIISH [literature AP from spotless smoothhound muscle]
- EC50 on hydroxyl radical [3, 9]: 76.9 µg/mL

Compound: LGLNGDDVN [literature AP from conger eel]
- EC50 on hydroxyl radical ([3]; AP from conger eel): 687 µg/mL

Compound: YFLWP [literature AP from miiuy croaker muscle]
- EC50 on superoxide anion radical ([2]; APs from miiuy croaker muscle): 3080 µg/mL

Compound: HFGBPFH [literature AP from grass carp skin]
- EC50 on DPPH radical ([1]; AP from grass carp skin): 200 µg/mL

Compound: FWKVV [literature AP from miiuy croaker muscle]
- EC50 on superoxide anion radical ([2]; APs from miiuy croaker muscle): 290 µg/mL
- EC50 on DPPH radical ([1]; APs from miiuy croaker muscle): 850 µg/mL
- EC50 on hydroxyl radical ([3]; APs from miiuy croaker muscle): 970 µg/mL

Compound: GAEGFIF [literature AP from skipjack tuna bone]
- EC50 on DPPH radical ([1]; APs from skipjack tuna bone): 300 µg/mL
- EC50 on hydroxyl radical ([3]; APs from skipjack tuna bone): 320 µg/mL
